In publication PMC9671962 (Communications Biology, 2022):
Several values for one entry are separate records, joined by “and”; a condition that tells them apart may be missing. Equal values may be shown once.

Legend:
[1] = assay type: in vivo; settings: CB57/BL6 mice; twice weekly, total of 4 dose fractions
Protocol: (§1) Toxicity studies were done in nontumor bearing CB-17 SCID mice (Taconic Biosciences). […] Each arm had n = 10 mice (5 male, 5 female mice). […] The vehicle group received an equal volume of saline (placebo). Weights were obtained twice weekly and mice were monitored daily for signs of toxicity. […] On target hematological and marrow toxicity which was evaluated by complete blood counts and marrow colony formation assay. An additional study was performed under identical conditions to evaluate additive dose effects. […] Each treatment group was composed of equal numbers of male and female mice to rule out gender-specific effects (n = 4 per treatment group per time point). Mice were followed for signs of acute toxicity for 2 weeks and 4 weeks before euthanasia. An additional group (n = 4) treated at 36 MBq/kg was euthanized after 72 h to assess early signs of toxicity by colony formation assays. This time course was chosen to best capture the nadir of bone marrow suppression. After euthanasia, blood was collected and femurs were dissected and processed for histopathology and bone marrow evaluation.
Supplementary Fi g u re 4: To le r a b ilit y studies to determine hematological and marrow toxicity of
[211At]PTT in CB57BL6 mice. a) Maximum tolerated dose finding studies fo r [211At]PTT administered
as 4 dose fractions given twice weekly in CB57BL6 mice. b) Complete blood counts assessed at 72 […]

[2] = test system: COG-N-453x; assay: Pre-clinical efficacy study, COG-N-453x PDX; assay type: in vivo; settings: single mouse
Protocol: Patient demographics and genetic characteristics are listed in (Supplementary Tables 1, 2)[17]. The maximum tolerated dose (MTD) was determined to be 36 MBq/kg administered by intra-peritoneal injection twice weekly for a total of 4 dose fractions and this fractionated regimen was used in all studies (Supplementary Fig. 1)[18],[19]. […] Nine of 11 PDX models were MYCN amplified (Fig. 1b), which is a hallmark of high-risk neuroblastoma. Tumor response was measured as the maximum percent decrease in tumor volume after treatment and event-free survival (EFS) was measured by the area over the curve method with tumor events pre-defined by tumor growth exceeding 2 cm[3],[18].
The use of 2 mice per arm was based on the previously reported statistical analysis. PDX tumors were implanted into the right flank of 5 to 6-weeks old female mice weighing about 20–25 grams. […] Two additional dose levels of 12, and 24 MBq/kg/fraction were assessed in a subset of models and were administered as stated above. In two models treated at the 24 MBq/kg/fraction dose level we re-challenged tumor response at the time of tumor progression with an additional 4 dose fractions at 24 MBq/kg/fraction given twice weekly. Doses were prepared in 500 µL total volume. An equal volume of saline was used for the vehicle group. Tumors were measured using a digital caliper at the initiation of the study and two times per week during the treatment period. Tumor volumes were calculated as volume = ([…]∗0.5236)/1000. Weights were obtained twice weekly and mice were monitored daily for signs of toxicity. […] Tumor response was assessed by best response defined as greatest reduction in tumor volume following the last dose and is presented as percent change in tumor volume. Event-free survival was determined by area over the curve method that calculates the time to tumor event, which was defined as tumors reaching or exceeding a size ≥ 2 cm^3.
Animal studies were performed in female mice due to the lack of sex-related differences for [^211At]PTT tolerability from initial dose response studies performed in female and male mice. Female mice were chosen due to their underlying behavior towards other study subjects that reduced nonstudy-related causes for decreased wellness. Pre-clinical efficacy studies were performed through “single mouse testing” to more closely recapitulate a clinical trial. […] Number size for treatment groups was determined by model tumor growth reproducibility, which was previously shown to have less than 5% normal variation with at least two animals. Statistical tests for tumor response and event-free survival (EFS) were performed as a grouped analysis that included all tumor models treated at each respective dose level (n = 2 per model per dose level). Statistical differences between treatment groups for tumor response was performed by paired-model T-test that compared reduction in tumor volume for the 36 MBq/kg dose level vs. 24 MBq/kg or 12 MBq/kg. Event free survival was measured by area over the curve method to quantify time to event, which was set as tumor growth exceeding 2 cm[3],[19]. Differences in EFS were tested across all treated models for each respective dose level, and against untreated controls, by paired-model ANOVA analysis. Associations of drug target expression and response were performed by linear regression analysis of EFS and PARP1 mRNA expression. Genetic signatures were visually presented as a function of EFS and no statistical tests were applied. Blood and marrow toxicity studies were performed with n = 5 sample sizes and powered to detect >20% differences between untreated controls and treated animals. Results were tested for significance by one-way ANOVA comparison from untreated controls. Marrow colony formation assays were performed in replicates of 2 for each mouse subject, dependent on marrow isolation, and all replicates are included in final analyses. […]

[3] = test system: platelets, white blood cells, lymphocytes, neutrophils; assay: Hematological toxicity by complete blood counts; assay type: in vivo, CB-17 SCID mice; design: Neutrophils / Lymphocytes / WBC: unit not given here; settings: for Lymphocytes / Neutrophils / Platelets / WBC: 72 hours post-treatment, single mouse
Protocol: as §1
Animals were monitored weekly for weight and daily for signs of distress until the time of euthanasia. […] Mice were anesthetized with mixed inhalation isoflurane/oxygen under a nosecone. Terminal cardiac puncture was performed and peripheral blood was transferred to K2EDTA BD Microtainer tubes (BD, San Antonio, TX). Sample volume injected was 20 µL and was pre-specified using the mouse protocol on the instrument.

[4] = 12 MBq/kg/fraction x 4 fractions
[5] = 24 MBq/kg/fraction x 4 fractions
[6] = 36 MBq/kg/fraction x 4 fractions

## O=C1NCCn2c(-c3ccc([211At])cc3)nc3cccc1c32 [[^211At]PTT, Astatine-211-parthanatine]
[1]
  MTD: 48 MBq/kg/fraction
[2]; [4]
  EFS by AOC method: 19.5598 days and 22.4877 days
  Tumor response (% growth from study initiation at ~ 200 mm3): 25% and -63.158%
[2]; [5]
  EFS by AOC method: 43.7943 days and 33.4459 days
  Tumor response (% growth from study initiation at ~ 200 mm3): -100% and -90.323%
[2]; [6]
  EFS by AOC method: 48.6067 days and 52.9347 days
  Tumor response (% growth from study initiation at ~ 200 mm3): -100%
[3]; 3 or less dose fractions at the 36 MBq/kg dose level
  thrombocytopenia: did not result in thrombocytopenia
[3]; 36 MBq/kg x 4 dose fractions
  Lymphocytes: 0.28 and 0.26 and 0.38 and 0.27
  Neutrophils: 0.42 and 0.22 and 0.16 and 0.34
  Platelets: 263 K/uL and 99 K/uL and 201 K/uL and 158 K/uL and 200 K/uL
  WBC: 0.78 and 0.26 and 0.58 and 0.62 and 0.7
[3]; 48 MBq/kg x 4 dose fractions
  Lymphocytes: 0.14 and 0.29 and 0.08 and 0.12 and 0.25
  Neutrophils: 0.24 and 0.18 and 0.26 and 0.09 and 0.13
  Platelets: 200 K/uL and 160 K/uL and 240 K/uL and 190 K/uL and 133 K/uL
  WBC: 0.5 and 0.6 and 0.36 and 0.26 and 0.48
[3]; 60 MBq/kg x 4 dose fractions
  Lymphocytes: 0.28 and 0.29 and 0.41 and 0.11
  Neutrophils: 0.41 and 0.09 and 0.71 and 0.08
  Platelets: 112 K/uL and 166 K/uL and 138 K/uL and 165 K/uL and 116 K/uL
  WBC: 0.14 and 0.76 and 0.44 and 1.42 and 0.22
[3]; 72 hours after the final dose fraction, 36, 48, 60 MBq/kg/fraction x 4
  Hematological toxicity versus control: significant reductions in platelets, white blood cells, and lymphocytes at all dose levels
[3]; post-therapy at the MTD
  time of full recovery from hematological and marrow toxicity: ≤ 4 weeks
[3]; post-treatment, 2 or 3 dose fractions of 36 MBq/kg
  time of full recovery of peripheral blood counts: 4 weeks
[3]; treatment with [^211At]PTT
  Effect on neutrophils: largely unaffected
